Results: patent US20060281806A1, “Treatment and inhibition of disease conditions using flexible heteroarotinoids” (priority 2005, published 2006)
“Also recorded” adds a separate entry of the source.

Legend:
[1] = test system: SiHa human cervical cell line; test: In vitro cytotoxicity (SRB growth inhibition) assay, SiHa; type: cell-based; parameters: dose or concentration left out as unconfirmed; settings: 72 h
Procedure: (§1) The SHetA2, SHetA3, SHetA4, SHet50 and 9-cis-RA compounds were evaluated in 4 cervical carcinoma cell lines. The SiHa, CC-1 and C33a human cervical cell lines were maintained in Minimal Essential Media (MEM) containing Earle's salts and L-glutamine supplemented with nonessential amino acids, 1% sodium pyruvate, 10% fetal bovine serum (FBS) and antibiotic/antimycotic. The HT-3 cervical carcinoma cell line was cultured in McCoy's 5a medium supplemented with 10% FBS and antibiotic/antimycotic. Cells were inoculated into 96 well microtiter plates at densities of 1000 cells/well and incubated for 24 h prior to addition of drugs. Drugs were dissolved in dimethyl sulfoxide (DMSO) and diluted in complete medium, prior to addition to triplicate culture wells to achieve final concentrations of […]. Following drug addition, the plates were incubated for 72 h. The assay was terminated by the addition of cold TCA and the cells were stained with 0.4% sulforhodamine B (SRB) in 1% acetic acid. Bound stain was subsequently solubilized with 10 mM trizma base, and the absorbance was read on an automated plate reader at a wavelength of 560 nm. Growth inhibition was determined by dividing the average Optical Density (OD) of the triplicated treated cultures by the average OD of the triplicate control cultures treated with DMSO solvent only. This ratio was converted into a percentage by multiplying by 100. The potency (concentration required to induce half of the maximal activity—GI50) were derived from dose-response graphs generated with results from 3 to 5 individual experiments using GraphPad Software.

[2] = test system: C33a human cervical cell line; test: In vitro cytotoxicity (SRB growth inhibition) assay, C33a; type: cell-based; parameters: dose or concentration left out as unconfirmed; settings: 72 h
Procedure: as §1

[3] = test system: ovarian carcinoma organotypic cultures; test: Organotypic culture model of ovarian tumors; type: cell-based, human; settings: 1 μM retinoid in media; 3, 7 or 14 days
Procedure: FIG. 17. Retinoid effects on ovarian carcinoma organotypic cultures. Organotypic cultures of OVCAR-3 (A, B, E, F, I and J), Caov-3 (C and G), SK-OV-3 (D and H), and O2 (K and L) were grown in the absence (−, top row and K) or presence (+, middle row and I, J and L) of retinoid HetA4 at a concentration of 1 μM in the media. All sections were stained with H&E except for I, which was stained with PAS to detect glycoproteins and glandular differentiantion, and J, which was stained with the TUNEL assay to detect apoptosis. All magnifications are 40×.
To test our hypotheses, we evaluated the effects of clinically achievable concentrations of 4-HPR and Flex-Hets on growth, differentiation and apoptosis in ovarian tissue. A series of compounds with a variety of receptor activation profiles were evaluated. In order to evaluate therapeutic effects, we developed an organotypic culture model of ovarian tumors by growing established cell lines and primary cultures inside collagen gels. Monolayer cultures of cells are not accurate representations of in vivo tissue because they lack the types of interactions that cells have with other cells and with the extracellular matrix in vivo. These interactions are known to influence gene expression and thus the constitution and behavior of cells. In our organotypic model, the growth of tumor cells inside the collagen allows a representation of tumors that have invaded stromal tissue. In the presence of fibroblasts, established cell lines and primary cultures of ovarian cancer formed colonies inside the collagen, while normal or benign ovarian epithelial cells remained as single cells inside the collagen. Human ovarian cancer cell lines (OVCAR-3, Caov-3, SK-OV-3, A2780, UCI 101) and primary human cultures (borderline ovarian tumor (O1), serous papillary tumor (O2), benign ovarian cyst (O3)) were cultured inside and on top of a collagen gel seeded with 3T3 fibroblasts for one week. After further incubation in the presence or absence of 1 μM retinoid (media concentration) for 3, 7 or 14 days, cultures were fixed and sectioned for immunohistochemical analysis.

Raldh2 −/− embryos = test: Rescue of Raldh2 −/− embryos and teratogenesis; type: in vivo, mouse; settings: for No. of −/− unrescued / Teratogenesis (no. of embryos) / No. of −/− rescued: E10.25 embryos
Procedure: Dosages varied from 0.025 to 25 mg/kg.

[4] = test system: HT-3 cervical carcinoma cell line; test: In vitro cytotoxicity (SRB growth inhibition) assay, HT-3; type: cell-based, human; parameters: dose or concentration left out as unconfirmed; settings: 72 h
Procedure: as §1

[5] = test system: CC-1 human cervical cell line; test: In vitro cytotoxicity (SRB growth inhibition) assay, CC-1; type: cell-based; parameters: dose or concentration left out as unconfirmed; settings: 72 h
Procedure: as §1

[6] = test system: dorsal skin of female Skh hairless mice; test: Topical irritancy; type: in vivo; settings: topical on dorsal skin for 4 days; 2-log concentration dose range
Procedure: Female Skh hairless mice, 6-8 weeks old, were treated topically on the dorsal skin for 4 days over a 2-log concentration dose range with various compounds. Retinoic acid receptor-Hets were evaluated in A, while retinoic acid receptor-independent Flex-Hets were evaluated in B. Daily flaking and abrasion scores were combined to calculate a single cutaneous toxicity score for each mouse. Each treatment group consisted of 4 mice, and group averages were used to plot cutaneous toxicity against doses of the compounds.
Topical irritancy was evaluated according to published procedures (29). Briefly, female Skh hairless mice, 6-8 weeks old, were treated topically on the dorsal skin for 4 days over a 2-log concentration dose range with various compounds. Daily flaking and abrasion scores were combined to calculate a single cutaneous toxicity score for each mouse. Each treatment group consists of 4 mice, and group averages are used to plot cutaneous toxicity against dose of the retinoid compound.

OVCAR-3 xenograft tumors = test: OVCAR-3 xenograft tumor animal model, tumor growth; type: in vivo, mouse; settings: 10 mg/kg/day by gavage, 5 days/week, 4 weeks; t-test on day 29
Procedure: Groups of 5 mice bearing OVCAR-3 xenografted tumors were gavaged daily with the indicated drugs in sesame oil (▪ closed square) or with sesame oil alone (∘ open circle). Tumor volumes were measured in 3 dimensions with calipers weekly. Each data point represents the average and standard error of the tumor volumes on the indicated treatment day relative to the tumor volume on day zero. Nu/nu mice were injected subcutaneously with one million OVCAR-3 cells and arbitrarily divided into five groups of six mice each. After three weeks of tumor growth, the animals were gavaged with sesame oil, 10 mg/kg/day 4-HPR, or the indicated Het five times per week for four weeks and the tumors were measured once per week. The tumor sizes were averaged and divided by the average size for each group on the day that treatment was initiated (day 0).
The OVCAR-3 cultures were maintained in RPMI media supplemented with 10% fetal bovine serum. All animal experimentation described in this manuscript was conducted in accord with accepted standards of humane animal care. Twenty-five female NU/NU CD-1 female mice (Charles Rivers Laboratories) were housed in a laminar flow room under sterile conditions at 83-85° F. The mice were quarantined for one week prior to the beginning of the study and were allowed access to autoclaved food (Purina 5001 mouse/rat sterilizable diet, St. Louis, Mo.) and water ad libitum. OVCAR-3 cells in log phase growth were harvested by trypsinization, resuspended in RPMI culture medium, and centrifuged at 3,000 rpm for 10 min. The pellets were resuspended in RPMI culture medium at a concentration of 7×10^6 cells/ml before implantation into mice. Animals were injected with 3.5×10^6 cells into the right scapular region with a 24-gauge needle/1 cc tuberculin syringe. Twenty-four hours after tumor implantation, animals were randomized into 5 groups of 5 animals each.
The Hets SHet50, SHetA2 and SHetA4 were synthesized and their receptor specificity determined as previously described (17,19). The 4-HPR compound was a gift from R.W. Johnson Pharmaceutical Research Institute, Raritan, N.J. All retinoids were dissolved in super refined sesame oil (Croda, Inc., Parsippany, N.J.) and stored at −80° C. Since the retinoids are light sensitive, all manipulations involving retinoids were performed under subdued lighting. […] Tumors were measured with calipers weekly, and tumor volumes were calculated using the formula: volume=length×width×height. Tumor growth was determined by the dividing the volume of the tumor at each weekly measurement by the volume on the first day of treatment. Animal weights and clinical signs of overall health status and cutaneous toxicities were recorded weekly.

[7] = Alanine aminotransferase (ALT) activity in plasma of mice; type: in vivo, mouse; settings: end of treatment, 10 mg/kg/day by gavage
Procedure: At the end of the treatment period, blood was drawn from each animal. Plasma was separated by centrifugation and stored at −70° C. The activity of ALT was determined in aliquots of plasma by standard spectrophotometric enzymatic techniques which are based on the reduction of pyruvate by lactate dehydrogenase (28). The method measures NADH disappearance with time of incubation at 37° C. The activities are expressed as mm/L/min. Two different amounts of plasma were used in each assay to assure measurement of the maximum rate.

[8] = dose 2.5 mg/kg oral to pregnant mice
[9] = dose 10 mg/kg oral to pregnant mice
[10] = dose 1.0 mg/kg oral to pregnant mice
[11] = dose 25 mg/kg oral to pregnant mice
[12] = dose 0.025 mg/kg oral to pregnant mice
[13] = dose 0.25 mg/kg oral to pregnant mice
[14] = dose 0.5 mg/kg oral to pregnant mice

CC1=C(/C=C/C(C)=C\C=C\C(C)=C\C(=O)O)C(C)(C)CCC1 [9-cis-RA, 9-cis-retinoic acid]
Efficacy: percent growth inhibition relative to the untreated control [1]: 24% | Efficacy: percent growth inhibition relative to the untreated control [2]: 45% | induction of apoptosis (TUNEL) in organotypic cultures [3]: Apoptosis was induced | rescue of Raldh2 −/− embryos (phenotype) (Raldh2 −/− embryos; 2.5 mg/kg to pregnant mothers): partial rescue | No. of −/− unrescued (Raldh2 −/− embryos; [8]): 8 | Teratogenesis (no. of embryos) (Raldh2 −/− embryos; [8]): 0 | No. of −/− rescued (Raldh2 −/− embryos; [9]): 6 | No. of −/− unrescued (Raldh2 −/− embryos; [9]): 1 | Teratogenesis (no. of embryos) (Raldh2 −/− embryos; [9]): 0 | Efficacy: percent growth inhibition relative to the untreated control [4]: 47% | Efficacy: percent growth inhibition relative to the untreated control [5]: 28%

CC1=C(/C=C/C(C)=C/C=C/C(C)=C/C(=O)O)C(C)(C)CCC1 [All-trans-RA]
No. of −/− rescued (Raldh2 −/− embryos; [10]): 0 | No. of −/− unrescued (Raldh2 −/− embryos; [10]): 7 | Teratogenesis (no. of embryos) (Raldh2 −/− embryos; [10]): 0 | No. of −/− rescued (Raldh2 −/− embryos; [8]): 13 | No. of −/− unrescued (Raldh2 −/− embryos; [8]): 1 | Teratogenesis (no. of embryos) (Raldh2 −/− embryos; [8]): 0

CCOC(=O)c1ccc(OC(=O)c2ccc3c(c2)C(C)(C)CCN3C(C)C)cc1 [NHet17]
topical irritancy (cutaneous toxicity score) [6]: induced topical irritancy scores in a dose-responsive manner

CC1(C)CCOc2ccc(C(=O)Oc3ccc(C=NNC(N)=S)cc3)cc21 [OHet72]
rescue of Raldh2 −/− embryos (phenotype) (Raldh2 −/− embryos; 2.5 mg/kg to pregnant mothers): no rescue | rescue of Raldh2 −/− embryos (phenotype) (Raldh2 −/− embryos; 10 or 25 mg/kg to pregnant mothers): no rescue | teratogenesis in litters (Raldh2 −/− embryos; any dosage (2.5, 10, 25 mg/kg)): no teratogenesis was observed | No. of −/− rescued (Raldh2 −/− embryos; [8]): 0 | No. of −/− unrescued (Raldh2 −/− embryos; [8]): 4 | Teratogenesis (no. of embryos) (Raldh2 −/− embryos; [8]): 0 | No. of −/− rescued (Raldh2 −/− embryos; [9]): 0 | No. of −/− unrescued (Raldh2 −/− embryos; [9]): 3 | Teratogenesis (no. of embryos) (Raldh2 −/− embryos; [9]): 0 | No. of −/− rescued (Raldh2 −/− embryos; [11]): 0 | No. of −/− unrescued (Raldh2 −/− embryos; [11]): 5 | Teratogenesis (no. of embryos) (Raldh2 −/− embryos; [11]): 0 | topical irritancy (cutaneous toxicity score) [6]: did not induce topical irritancy

COC(=O)c1ccc(C(=O)Nc2ccc3c(c2)C(C)(C)CC(C)(C)S3)cc1 [SHet50, reference compound]
Efficacy: percent growth inhibition relative to the untreated control [1]: 35% | Efficacy: percent growth inhibition relative to the untreated control [2]: 67% | induction of apoptosis (TUNEL) in organotypic cultures [3]: Apoptosis was induced | growth of xenograft tumors versus sesame oil control (OVCAR-3 xenograft tumors): significantly inhibited the growth; also recorded: significantly less | ALT Activity [7]: 65.5 ± 46.3 mm/liter/min | Efficacy: percent growth inhibition relative to the untreated control [4]: 47% | Efficacy: percent growth inhibition relative to the untreated control [5]: 15%

CC(C=CC=C(C)c1ccc2c(c1)C(C)(C)CS2)=CC(=O)O [SHet65]
topical irritancy (cutaneous toxicity score) [6]: induced topical irritancy scores in a dose-responsive manner

CC(Cc1ccc(C(=O)O)cc1)c1ccc2c(c1)C(C)(C)CS2 (stereo not drawn) [SHet100]
rescue of Raldh2 −/− embryos (phenotype) (Raldh2 −/− embryos; 0.25 mg/kg to pregnant mothers): partial rescue | rescue of Raldh2 −/− embryos (phenotype) (Raldh2 −/− embryos; 0.5 mg/kg to pregnant mothers): typical rescue phenotype | teratogenesis in litter (Raldh2 −/− embryos; 2.5 mg/kg to pregnant mothers): teratogenic for all embryos in a litter | No. of −/− rescued (Raldh2 −/− embryos; [12]): 0 | No. of −/− unrescued (Raldh2 −/− embryos; [12]): 2 | Teratogenesis (no. of embryos) (Raldh2 −/− embryos; [12]): 0 | No. of −/− unrescued (Raldh2 −/− embryos; [13]): 0 | Teratogenesis (no. of embryos) (Raldh2 −/− embryos; [13]): 0 | No. of −/− rescued (Raldh2 −/− embryos; [14]): 6 | No. of −/− unrescued (Raldh2 −/− embryos; [14]): 1 | Teratogenesis (no. of embryos) (Raldh2 −/− embryos; [14]): 0 | Teratogenesis (no. of embryos) (Raldh2 −/− embryos; [8]): 11
